Experimental data from the supplement of paper PMC12463676, “Small-molecule dissolution of stress granules by redox modulation benefits ALS models” (Nature Chemical Biology, 2025).

Assays:
potassium arsenate = compound: O=[As]([O-])(O)O.[K+] [potassium arsenate]; assay: thermal stability z-score vs DMSO; higher = more thermally stabilized by treatment; conditions: HeLa; arsenate concentration 1 mM
Method: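 Cellular thermal proteome profiling in HeLa cells treated with 1 mM arsenate for 1 h (DMSO pretreatment), heated to ten temperatures (37-66.3 °C). Soluble protein was quantified by TMT mass spectrometry relative to DMSO controls; the thermal stability score was transformed to a z-score; mean of n = 3 experiments.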

lipoamide = compound: NC(=O)CCCCC1CCSS1 [lipoamide]; assay: as above; conditions: HeLa, lipoamide concentration 100 µM
Method: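 Cellular thermal proteome profiling in HeLa cells. Cells were treated with 100 µM lipoamide for 1 h, with or without 1 mM arsenate for a further 1 h, then heated to ten temperatures (37-66.3 °C), and soluble protein was quantified by TMT mass spectrometry relative to 0.1% DMSO controls. The thermal stability score (sum of log2 fold changes minus the abundance score) was transformed to a z-score; mean of n = 3 experiments.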

[1] = arsenate co-treatment: 1 mM arsenate 1 h
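Also: each temperature applied for 3 min, abundance score taken as mean log2 fold change at the two lowest temperatures, z-score obtained by mean subtraction and division by SD.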

Chain of UniProt Q9Y5Z4 (Q9Y5Z4 whole entry): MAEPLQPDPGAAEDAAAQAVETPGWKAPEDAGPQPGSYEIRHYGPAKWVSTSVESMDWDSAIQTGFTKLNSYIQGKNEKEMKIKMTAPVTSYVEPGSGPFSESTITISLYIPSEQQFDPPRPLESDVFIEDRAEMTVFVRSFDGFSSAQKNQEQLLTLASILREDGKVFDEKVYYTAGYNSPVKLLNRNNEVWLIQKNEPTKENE
Chain of UniProt P56524 (P56524 whole entry): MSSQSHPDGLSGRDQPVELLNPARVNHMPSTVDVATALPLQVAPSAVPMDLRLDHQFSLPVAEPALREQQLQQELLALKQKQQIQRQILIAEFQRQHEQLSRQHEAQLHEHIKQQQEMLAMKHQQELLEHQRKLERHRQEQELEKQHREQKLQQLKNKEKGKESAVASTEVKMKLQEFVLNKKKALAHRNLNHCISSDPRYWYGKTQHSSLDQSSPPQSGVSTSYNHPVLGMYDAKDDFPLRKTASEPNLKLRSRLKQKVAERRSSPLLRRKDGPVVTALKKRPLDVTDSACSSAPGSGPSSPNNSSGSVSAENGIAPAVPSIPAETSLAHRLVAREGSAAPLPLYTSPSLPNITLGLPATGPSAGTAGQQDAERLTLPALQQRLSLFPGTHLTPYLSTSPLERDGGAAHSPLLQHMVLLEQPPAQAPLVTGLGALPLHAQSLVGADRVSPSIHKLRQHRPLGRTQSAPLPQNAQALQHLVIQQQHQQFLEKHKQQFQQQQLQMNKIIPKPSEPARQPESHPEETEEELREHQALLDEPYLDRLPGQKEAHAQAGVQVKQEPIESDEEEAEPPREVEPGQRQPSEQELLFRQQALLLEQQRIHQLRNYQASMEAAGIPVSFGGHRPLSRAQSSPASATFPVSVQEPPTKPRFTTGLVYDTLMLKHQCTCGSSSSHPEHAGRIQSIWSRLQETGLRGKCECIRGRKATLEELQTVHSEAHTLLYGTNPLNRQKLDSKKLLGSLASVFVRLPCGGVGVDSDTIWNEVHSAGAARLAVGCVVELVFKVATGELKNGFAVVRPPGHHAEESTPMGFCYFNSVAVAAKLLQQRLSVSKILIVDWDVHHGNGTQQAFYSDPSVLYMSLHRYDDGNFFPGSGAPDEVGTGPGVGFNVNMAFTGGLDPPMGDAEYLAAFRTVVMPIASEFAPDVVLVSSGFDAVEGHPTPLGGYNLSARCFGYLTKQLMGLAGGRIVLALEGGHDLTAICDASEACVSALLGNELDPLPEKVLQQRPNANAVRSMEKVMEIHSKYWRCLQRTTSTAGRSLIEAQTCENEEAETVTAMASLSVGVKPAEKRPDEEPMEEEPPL
Chain of UniProt P50747 (P50747 whole entry): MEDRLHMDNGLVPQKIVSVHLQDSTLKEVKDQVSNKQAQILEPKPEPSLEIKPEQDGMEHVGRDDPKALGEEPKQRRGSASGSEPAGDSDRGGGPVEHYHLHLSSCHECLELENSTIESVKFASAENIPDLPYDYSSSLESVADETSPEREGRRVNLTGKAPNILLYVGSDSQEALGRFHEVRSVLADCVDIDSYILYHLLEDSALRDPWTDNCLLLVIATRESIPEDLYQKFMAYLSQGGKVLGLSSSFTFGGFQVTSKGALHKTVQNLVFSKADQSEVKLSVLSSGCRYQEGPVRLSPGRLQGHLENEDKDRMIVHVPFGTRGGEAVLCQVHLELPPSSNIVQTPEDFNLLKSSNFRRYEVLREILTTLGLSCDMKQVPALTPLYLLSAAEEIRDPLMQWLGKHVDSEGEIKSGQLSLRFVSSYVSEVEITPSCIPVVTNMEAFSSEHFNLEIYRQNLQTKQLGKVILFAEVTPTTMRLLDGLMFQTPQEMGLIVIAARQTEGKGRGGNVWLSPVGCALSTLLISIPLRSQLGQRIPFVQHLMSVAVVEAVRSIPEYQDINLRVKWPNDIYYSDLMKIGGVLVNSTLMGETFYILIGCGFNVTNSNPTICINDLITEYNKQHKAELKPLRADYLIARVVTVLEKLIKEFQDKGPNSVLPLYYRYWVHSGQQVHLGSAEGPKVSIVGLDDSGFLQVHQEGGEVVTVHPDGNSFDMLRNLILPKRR
Chain of UniProt P08397 (P08397 whole entry): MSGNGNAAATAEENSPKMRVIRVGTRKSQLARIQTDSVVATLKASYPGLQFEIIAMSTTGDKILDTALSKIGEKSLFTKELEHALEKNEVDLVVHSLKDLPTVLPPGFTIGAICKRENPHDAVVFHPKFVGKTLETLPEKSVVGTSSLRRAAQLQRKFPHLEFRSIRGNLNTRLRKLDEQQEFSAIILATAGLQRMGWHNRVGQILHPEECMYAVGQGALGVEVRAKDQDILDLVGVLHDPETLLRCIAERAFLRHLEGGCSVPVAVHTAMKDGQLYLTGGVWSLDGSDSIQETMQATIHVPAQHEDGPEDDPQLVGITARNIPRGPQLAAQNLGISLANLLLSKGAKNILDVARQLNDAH
Chain of UniProt Q9P0W2 (Q9P0W2 whole entry): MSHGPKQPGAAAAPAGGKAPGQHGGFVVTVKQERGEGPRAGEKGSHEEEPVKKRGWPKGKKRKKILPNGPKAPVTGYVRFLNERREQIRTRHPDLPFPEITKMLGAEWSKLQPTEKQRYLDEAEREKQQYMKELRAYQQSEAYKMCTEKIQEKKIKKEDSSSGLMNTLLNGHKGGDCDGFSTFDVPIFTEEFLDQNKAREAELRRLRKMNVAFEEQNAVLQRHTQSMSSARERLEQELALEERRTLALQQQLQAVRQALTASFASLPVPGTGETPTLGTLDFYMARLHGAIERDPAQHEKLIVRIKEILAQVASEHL
Chain of UniProt Q7Z4H3 (Q7Z4H3 whole entry): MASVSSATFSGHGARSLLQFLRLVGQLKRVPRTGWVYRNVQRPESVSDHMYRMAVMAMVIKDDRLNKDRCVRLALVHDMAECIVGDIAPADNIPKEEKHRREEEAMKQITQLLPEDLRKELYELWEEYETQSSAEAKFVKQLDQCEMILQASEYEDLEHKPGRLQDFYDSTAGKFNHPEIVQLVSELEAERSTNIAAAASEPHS
Chain of UniProt P51858 (P51858 whole entry): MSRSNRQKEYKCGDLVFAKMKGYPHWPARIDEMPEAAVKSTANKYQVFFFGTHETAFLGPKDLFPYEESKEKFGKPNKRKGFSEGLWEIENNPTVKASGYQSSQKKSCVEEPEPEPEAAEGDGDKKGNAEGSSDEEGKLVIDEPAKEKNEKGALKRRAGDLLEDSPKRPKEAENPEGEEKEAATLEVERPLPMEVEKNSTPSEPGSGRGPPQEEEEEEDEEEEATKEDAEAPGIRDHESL
Chain of UniProt Q92769 (Q92769 whole entry): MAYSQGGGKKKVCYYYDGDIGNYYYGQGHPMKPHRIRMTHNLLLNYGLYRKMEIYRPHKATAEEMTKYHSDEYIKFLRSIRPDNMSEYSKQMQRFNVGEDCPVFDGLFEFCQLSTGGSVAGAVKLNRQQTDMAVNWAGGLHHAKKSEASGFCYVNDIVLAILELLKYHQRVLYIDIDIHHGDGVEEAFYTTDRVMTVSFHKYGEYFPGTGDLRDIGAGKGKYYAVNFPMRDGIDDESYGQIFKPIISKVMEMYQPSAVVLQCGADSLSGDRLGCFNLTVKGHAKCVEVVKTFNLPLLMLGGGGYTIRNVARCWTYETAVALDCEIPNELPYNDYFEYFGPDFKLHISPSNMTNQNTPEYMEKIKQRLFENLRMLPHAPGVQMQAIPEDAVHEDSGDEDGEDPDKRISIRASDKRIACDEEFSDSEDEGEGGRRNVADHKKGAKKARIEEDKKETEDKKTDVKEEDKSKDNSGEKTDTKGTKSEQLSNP
Chain of UniProt O00165 (O00165 whole entry): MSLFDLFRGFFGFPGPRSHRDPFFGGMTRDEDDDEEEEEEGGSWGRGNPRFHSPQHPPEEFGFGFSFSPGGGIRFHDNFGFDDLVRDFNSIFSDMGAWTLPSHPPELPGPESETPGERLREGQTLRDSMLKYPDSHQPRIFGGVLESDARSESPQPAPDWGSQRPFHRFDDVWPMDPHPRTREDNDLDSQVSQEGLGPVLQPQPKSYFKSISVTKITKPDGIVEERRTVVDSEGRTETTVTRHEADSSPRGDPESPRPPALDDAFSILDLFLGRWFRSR
Chain of UniProt Q9NQE9 (Q9NQE9 whole entry): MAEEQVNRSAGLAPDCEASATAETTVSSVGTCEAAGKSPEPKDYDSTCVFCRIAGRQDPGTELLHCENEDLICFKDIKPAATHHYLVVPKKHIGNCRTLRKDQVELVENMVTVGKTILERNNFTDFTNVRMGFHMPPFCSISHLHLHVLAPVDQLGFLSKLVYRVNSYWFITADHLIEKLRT
Chain of UniProt Q8N4P3 (Q8N4P3 whole entry): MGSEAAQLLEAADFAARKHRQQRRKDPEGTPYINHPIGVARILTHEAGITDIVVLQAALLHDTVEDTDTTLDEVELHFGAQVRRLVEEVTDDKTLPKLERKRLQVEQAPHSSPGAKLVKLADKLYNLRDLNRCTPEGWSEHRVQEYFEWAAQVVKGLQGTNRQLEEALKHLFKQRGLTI
Chain of UniProt Q9BTY7 (Q9BTY7 whole entry): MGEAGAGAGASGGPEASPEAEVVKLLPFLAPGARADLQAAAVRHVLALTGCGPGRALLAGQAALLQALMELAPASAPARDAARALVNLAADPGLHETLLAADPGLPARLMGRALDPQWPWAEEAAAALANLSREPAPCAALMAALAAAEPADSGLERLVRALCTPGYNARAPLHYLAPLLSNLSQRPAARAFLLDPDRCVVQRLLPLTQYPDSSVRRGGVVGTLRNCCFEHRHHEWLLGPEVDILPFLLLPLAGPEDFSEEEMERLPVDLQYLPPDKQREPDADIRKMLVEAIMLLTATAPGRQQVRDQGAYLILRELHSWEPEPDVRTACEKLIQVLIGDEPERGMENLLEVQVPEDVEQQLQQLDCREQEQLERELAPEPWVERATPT
Chain of UniProt Q9BX68 (Q9BX68 whole entry): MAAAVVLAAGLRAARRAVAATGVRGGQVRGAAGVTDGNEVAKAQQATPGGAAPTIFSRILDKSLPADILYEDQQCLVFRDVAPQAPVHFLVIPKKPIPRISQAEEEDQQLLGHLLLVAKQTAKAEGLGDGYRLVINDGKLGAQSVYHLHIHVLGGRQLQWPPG

Row | Target | thermal stability z-score (potassium arsenate) | thermal stability z-score (lipoamide; [1]) | thermal stability z-score (lipoamide; arsenate co-treatment: none)
1 | HAUS8 (UniProt Q9BT25) | 1.71 | 0.268 | 0.632
2 | HAX1 (UniProt O00165) | -0.11 | -1 | -0.895
3 | HBS1L (UniProt Q9Y450) | -0.278 | 0.179 | 0.0726
4 | HCCS (UniProt P53701) | -0.0765 | -0.0583 | -0.124
5 | HCFC1 (UniProt P51610) | -0.101 | 1.26 | 1.15
6 | HDAC1 (UniProt Q13547) | -0.601 |  | 3.56
7 | HDAC2 (UniProt Q92769) | -0.0176 | 4.76 | 4.53
8 | HDAC3 (UniProt O15379) | -0.0998 | -0.0189 | -0.0121
9 | HDAC4 (UniProt P56524) | -0.19 | 0.426 | 0.45
10 | HDAC7 (UniProt Q8WUI4) | -0.534 | 0.158 | -0.253
11 | HDDC2 (UniProt Q7Z4H3) | -0.419 | -0.204 | -0.127
12 | HDDC3 (UniProt Q8N4P3) | -0.222 | -0.522 | -1.05
13 | HDGF (UniProt P51858) | 0.19 | 0.026 | 0.439
14 | HDGFRP2 (UniProt Q7Z4V5) | 0.126 | 0.576 | 0.499
15 | HDHD2 (UniProt Q9H0R4) | -0.185 | 0.338 | 0.00313
16 | HDHD3 (UniProt Q9BSH5) | -2.27 | -0.136 | -0.867
17 | HDLBP (UniProt Q00341) | -0.295 | -0.35 | 0.231
18 | HEATR1 (UniProt Q9H583) | -0.114 | -1.73 | -1.13
19 | HEATR3 (UniProt Q7Z4Q2) | 0.285 | -0.189 | 0.0325
20 | HEATR5A (UniProt Q86XA9) | 0.782 | -0.931 | 0.157
21 | HEATR5B (UniProt Q9P2D3) | -0.105 | -1.25 | -0.638
22 | HEATR6 (UniProt Q6AI08) | 0.868 | 0.393 | 0.194
23 | HEBP1 (UniProt Q9NRV9) | -0.000791 | 0.436 | 0.615
24 | HEBP2 (UniProt Q9Y5Z4) | 0.0122 | 0.891 | 0.694

Row | Target | thermal stability z-score (potassium arsenate) | thermal stability z-score (lipoamide; [1]) | thermal stability z-score (lipoamide; arsenate co-treatment: none)
25 | HECTD1 (UniProt Q9ULT8) | 0.641 | -0.353 | -0.164
26 | HECTD3 (UniProt Q5T447) | 0.272 | -0.331 | -0.0311
27 | HECTD4 (UniProt Q9Y4D8) | 0.284 | -0.345 | 0.341
28 | HEG1 (UniProt Q9ULI3) | 0.868 | -0.842 | 1.15
29 | HEL | -0.18 | -0.604 | -0.392
30 | HELB (UniProt Q8NG08) | -0.671 | -0.468 | -0.74
31 | HELLS (UniProt Q9NRZ9) | -0.282 | -0.0381 | -0.0408
32 | HELZ2 (UniProt Q9BYK8) | -0.0872 | -0.0529 | -0.115
33 | HELZ (UniProt P42694) | -0.122 | -0.153 | -0.0553
34 | HENMT1 (UniProt Q5T8I9) | 0.197 | -0.37 | -0.0316
35 | HERC1 (UniProt Q15751) | -0.0795 | -0.83 | -0.54
36 | HERC2 (UniProt O95714) | 0.0415 | -0.947 | -1.04
37 | HERC4 (UniProt Q5GLZ8) | 0.726 | 0.298 | -0.11
38 | HERC5 (UniProt Q9UII4) | 0.512 | 0.139 | 0.601
39 | HERPUD1 (UniProt Q15011) | -0.94 | 0.186 | -0.201
40 | HEXA (UniProt P06865) | -0.0764 | -0.146 | -0.412
41 | HEXB (UniProt P07686) | 0.149 | -0.421 | -0.254
42 | HEXIM1 (UniProt O94992) | 0.384 | 0.736 | 0.591
43 | HEXIM2 (UniProt Q96MH2) | 0.53 | -0.264 | 0.637
44 | HFE (UniProt Q30201) | 0.0645 | -0.0165 | 0.389
45 | HGH1 (UniProt Q9BTY7) | 0.787 | 0.403 | 0.226
46 | HGS (UniProt O14964) | 0.102 | 0.268 | 0.638
47 | HIBADH (UniProt P31937) | -1.36 | -1.36 | -0.391
48 | HIBCH (UniProt Q6NVY1) | -0.476 | 0.0376 | -0.171

Row | Target | thermal stability z-score (potassium arsenate) | thermal stability z-score (lipoamide; [1]) | thermal stability z-score (lipoamide; arsenate co-treatment: none)
49 | HIF1AN (UniProt Q9NWT6) | 0.463 | -0.806 | -0.553
50 | HINT1 (UniProt P49773) | -0.189 | 1.13 | 0.532
51 | HINT2 (UniProt Q9BX68) | -1.98 | -0.459 | -0.337
52 | HINT3 (UniProt Q9NQE9) | -1.57 | 0.23 | 0.339
53 | HIP1 (UniProt O00291) | 0.215 | 0.0784 | 0.0537
54 | HIP1R (UniProt O75146) | -0.232 | 0.15 | 0.28
55 | HIRIP3 (UniProt Q9BW71) | 0.468 | -0.148 | 0.462
56 | HIST1H1B (UniProt P16401) | 1.19 | 1.01 | 0.679
57 | HIST1H1C (UniProt P16403) | 0.0976 | 0.707 | 0.018
58 | HIST1H1E (UniProt P10412) | 0.618 | 0.132 | 0.627
59 | HIST1H4A (UniProt P62805) | 2.61 | 0.954 | 0.814
60 | HK1 (UniProt P19367) | 0.159 | 0.339 | 0.466
61 | HK2 (UniProt P52789) | 0.715 | -0.636 | -0.168
62 | HLA | -0.138 | -0.65 | -0.217
63 | HLCS (UniProt P50747) | -0.0791 | -1.26 | -0.885
64 | HLTF (UniProt Q14527) | -0.308 | -0.245 | -0.0608
65 | HM13 (UniProt Q8TCT9) | 0.759 | 0.0446 | -0.0484
66 | HMBS (UniProt P08397) | 0.0804 | 0.513 | 0.573
67 | HMCES (UniProt Q96FZ2) | -0.565 | 0.164 | 0.254
68 | HMG20A (UniProt Q9NP66) | 0.344 | 0.359 | -0.371
69 | HMG20B (UniProt Q9P0W2) | 0.0621 | -0.211 | -0.0202
70 | HMGA1 (UniProt P17096) | -0.692 | -0.361 | 0.993
71 | HMGB1 (UniProt P09429) | 0.309 | 0.26 | 0.59
72 | HMGB2 (UniProt P26583) | 0.175 | 0.55 | 0.687
